Data taken from US10167262B2, “Herbicidal substituted 3-arylpyrazoles” (FMC CORPORATION, priority 2014, dated 2019).

Assays:
Assay in all cases: Test D postemergence controlled growth environment test, plant response rating 0-100
Format in all cases: in vivo
[1] = test system: lambsquarters (Chenopodium album)
Description: (§1) Seeds of plant species selected from bluegrass (annual bluegrass, Poa annua), blackgrass (Alopecurus myosuroides), canarygrass (Phalaris minor), chickweed (common chickweed, Stellaria media), galium (catchweed bedstraw, Galium aparine), downy bromegrass (Bromus tectorum), field violet (Viola arvensis), green foxtail (Setaria viridis), deadnettle (henbit deadnettle, Lamium amplexicaule), Italian ryegrass (Lolium multiflorum), kochia (Kochia scoparia), lambsquarters (Chenopodium album), oilseed rape (Brassica napus), pigweed (Amaranthus retroflexus), Russian thistle (Salsola kali), spring barley (Hordeum vulgare), spring wheat (Triticum aestivum), wild buckwheat (Polygonum convolvulus), wild mustard (Sinapis arvensis), wild oat (Avena fatua), windgrass (Apera spica-venti), winter barley (Hordeum vulgare), and winter wheat (Triticum aestivum) were planted in pots containing Redi-Earth® planting medium (Scotts Company, 14111 Scottslawn Road, Marysville, Ohio 43041) comprising spaghnum peat moss, vermiculite, wetting agent and starter nutrients and treated with postemergence applications of test chemicals formulated in a non-phytotoxic solvent mixture which included a surfactant. Plants ranged in height from 2 to 18 cm (1- to 4-leaf stage). Treated plants and controls were maintained in a controlled growth environment for 14 days after which time all species were compared to controls and visually evaluated. Plant response ratings, summarized in Table D, are based on a scale of 0 to 100 where 0 is no effect and 100 is complete control. A dash (-) response means no test result.

[2] = test system: canarygrass (Phalaris minor)
Description: as §1

[3] = test system: winter barley (Hordeum vulgare)
Description: as §1

[4] = test system: bluegrass (annual bluegrass, Poa annua)
Description: as §1

[5] = test system: wild mustard (Sinapis arvensis)
Description: as §1

[6] = test system: spring barley (Hordeum vulgare)
Description: as §1

[7] = test system: spring wheat (Triticum aestivum)
Description: as §1

[8] = test system: winter wheat (Triticum aestivum)
Description: as §1

[9] = test system: chickweed (common chickweed, Stellaria media)
Description: as §1

[10] = test system: kochia (Kochia scoparia)
Description: as §1

[11] = test system: wild oat (Avena fatua)
Description: as §1

[12] = test system: downy bromegrass (Bromus tectorum)
Description: as §1

[13] = test system: Italian ryegrass (Lolium multiflorum)
Description: as §1

[14] = test system: green foxtail (Setaria viridis)
Description: as §1

[15] = test system: blackgrass (Alopecurus myosuroides)
Description: as §1

[16] = test system: galium (catchweed bedstraw, Galium aparine)
Description: as §1

[17] = test system: deadnettle (henbit deadnettle, Lamium amplexicaule)
Description: as §1

[18] = test system: windgrass (Apera spica-venti)
Description: as §1

[19] = test system: oilseed rape (Brassica napus)
Description: as §1

[20] = test system: Russian thistle (Salsola kali)
Description: as §1

In the case of Clc1cc(Cl)cc(-c2n[nH]cc2C(=NN2CCCC2)c2ccccc2)c1 [Compound 30, N-[[3-(3,5-dichlorophenyl)-1H-pyrazol-4-yl]phenylmethylene]-1-pyrrolidinamine], the “Plant response rating, Lambsquarters” value ([1]; 16 g ai/ha) is reported as 0, the “Plant response rating, Lambsquarters” value ([1]; 31 g ai/ha) is reported as 0 and the “Plant response rating, Lambsquarters” value ([1]; 62 g ai/ha) is reported as 30. For the same compound, the “Plant response rating, Lambsquarters” value ([1]; 125 g ai/ha) was 40, the “Plant response rating, Lambsquarters” value ([1]; 250 g ai/ha) was 50 and the “Plant response rating, Canarygrass” value ([2]; 16 g ai/ha) was 0. For the same compound, the “Plant response rating, Canarygrass” value ([2]; 31 g ai/ha) was 0, the “Plant response rating, Canarygrass” value ([2]; 62 g ai/ha) was 0 and the “Plant response rating, Canarygrass” value ([2]; 125 g ai/ha) was 0. The “Plant response rating, Canarygrass” value ([2]; 250 g ai/ha) was 10, the “Plant response rating, Barley, Winter” value ([3]; 16 g ai/ha) was 0 and the “Plant response rating, Barley, Winter” value ([3]; 31 g ai/ha) was 0. The “Plant response rating, Barley, Winter” value ([3]; 62 g ai/ha) was 0, the “Plant response rating, Barley, Winter” value ([3]; 125 g ai/ha) was 0 and the “Plant response rating, Barley, Winter” value ([3]; 250 g ai/ha) was 0. For the same compound, the “Plant response rating, Bluegrass” value ([4]; 16 g ai/ha) was 0, the “Plant response rating, Bluegrass” value ([4]; 31 g ai/ha) was 0 and the “Plant response rating, Bluegrass” value ([4]; 62 g ai/ha) was 0. For the same compound, the “Plant response rating, Bluegrass” value ([4]; 125 g ai/ha) was 0, the “Plant response rating, Bluegrass” value ([4]; 250 g ai/ha) was 0 and the “Plant response rating, Mustard, Wild” value ([5]; 16 g ai/ha) was 60. For the same compound, the “Plant response rating, Mustard, Wild” value ([5]; 31 g ai/ha) was 60, the “Plant response rating, Mustard, Wild” value ([5]; 62 g ai/ha) was 60 and the “Plant response rating, Mustard, Wild” value ([5]; 125 g ai/ha) was 70. The “Plant response rating, Mustard, Wild” value ([5]; 250 g ai/ha) was 85, the “Plant response rating, Barley, Spring” value ([6]; 16 g ai/ha) was 0 and the “Plant response rating, Barley, Spring” value ([6]; 31 g ai/ha) was 0. The “Plant response rating, Barley, Spring” value ([6]; 62 g ai/ha) was 0, the “Plant response rating, Barley, Spring” value ([6]; 125 g ai/ha) was 0 and the “Plant response rating, Barley, Spring” value ([6]; 250 g ai/ha) was 0. For the same compound, the “Plant response rating, Wheat, Spring” value ([7]; 16 g ai/ha) was 0, the “Plant response rating, Wheat, Spring” value ([7]; 31 g ai/ha) was 0 and the “Plant response rating, Wheat, Spring” value ([7]; 62 g ai/ha) was 0. The “Plant response rating, Wheat, Spring” value ([7]; 125 g ai/ha) was 0, the “Plant response rating, Wheat, Spring” value ([7]; 250 g ai/ha) was 0 and the “Plant response rating, Wheat, Winter” value ([8]; 16 g ai/ha) was 0. The “Plant response rating, Wheat, Winter” value ([8]; 31 g ai/ha) was 0, the “Plant response rating, Wheat, Winter” value ([8]; 62 g ai/ha) was 0 and the “Plant response rating, Wheat, Winter” value ([8]; 125 g ai/ha) was 0. The “Plant response rating, Wheat, Winter” value ([8]; 250 g ai/ha) was 90, the “Plant response rating, Chickweed” value ([9]; 16 g ai/ha) was 0 and the “Plant response rating, Chickweed” value ([9]; 31 g ai/ha) was 0. The “Plant response rating, Chickweed” value ([9]; 62 g ai/ha) was 10, the “Plant response rating, Chickweed” value ([9]; 125 g ai/ha) was 40 and the “Plant response rating, Chickweed” value ([9]; 250 g ai/ha) was 75. For the same compound, the “Plant response rating, Kochia” value ([10]; 16 g ai/ha) was 0, the “Plant response rating, Kochia” value ([10]; 31 g ai/ha) was 10 and the “Plant response rating, Kochia” value ([10]; 62 g ai/ha) was 30. The “Plant response rating, Kochia” value ([10]; 125 g ai/ha) was 40, the “Plant response rating, Kochia” value ([10]; 250 g ai/ha) was 70 and the “Plant response rating, Oat, Wild” value ([11]; 16 g ai/ha) was 0. For the same compound, the “Plant response rating, Oat, Wild” value ([11]; 31 g ai/ha) was 0, the “Plant response rating, Oat, Wild” value ([11]; 62 g ai/ha) was 0 and the “Plant response rating, Oat, Wild” value ([11]; 125 g ai/ha) was 0. The “Plant response rating, Oat, Wild” value ([11]; 250 g ai/ha) was 0, the “Plant response rating, Bromegrass, Downy” value ([12]; 16 g ai/ha) was 0 and the “Plant response rating, Bromegrass, Downy” value ([12]; 31 g ai/ha) was 0. The “Plant response rating, Bromegrass, Downy” value ([12]; 62 g ai/ha) was 0, the “Plant response rating, Bromegrass, Downy” value ([12]; 125 g ai/ha) was 0 and the “Plant response rating, Bromegrass, Downy” value ([12]; 250 g ai/ha) was 0. For the same compound, the “Plant response rating, Ryegrass, Italian” value ([13]; 16 g ai/ha) was 0, the “Plant response rating, Ryegrass, Italian” value ([13]; 31 g ai/ha) was 0 and the “Plant response rating, Ryegrass, Italian” value ([13]; 62 g ai/ha) was 0. The “Plant response rating, Ryegrass, Italian” value ([13]; 125 g ai/ha) was 0, the “Plant response rating, Ryegrass, Italian” value ([13]; 250 g ai/ha) was 10 and the “Plant response rating, Foxtail, Green” value ([14]; 16 g ai/ha) was 0. For the same compound, the “Plant response rating, Foxtail, Green” value ([14]; 31 g ai/ha) was 0, the “Plant response rating, Foxtail, Green” value ([14]; 62 g ai/ha) was 0 and the “Plant response rating, Foxtail, Green” value ([14]; 125 g ai/ha) was 0. For the same compound, the “Plant response rating, Foxtail, Green” value ([14]; 250 g ai/ha) was 0, the “Plant response rating, Blackgrass” value ([15]; 16 g ai/ha) was 0 and the “Plant response rating, Blackgrass” value ([15]; 31 g ai/ha) was 0. The “Plant response rating, Blackgrass” value ([15]; 62 g ai/ha) was 0, the “Plant response rating, Blackgrass” value ([15]; 125 g ai/ha) was 10 and the “Plant response rating, Blackgrass” value ([15]; 250 g ai/ha) was 10. For the same compound, the “Plant response rating, Galium” value ([16]; 16 g ai/ha) was 0, the “Plant response rating, Galium” value ([16]; 31 g ai/ha) was 0 and the “Plant response rating, Galium” value ([16]; 62 g ai/ha) was 0. The “Plant response rating, Galium” value ([16]; 125 g ai/ha) was 0, the “Plant response rating, Galium” value ([16]; 250 g ai/ha) was 0 and the “Plant response rating, Deadnettle” value ([17]; 16 g ai/ha) was 0. For the same compound, the “Plant response rating, Deadnettle” value ([17]; 31 g ai/ha) was 0, the “Plant response rating, Deadnettle” value ([17]; 62 g ai/ha) was 0 and the “Plant response rating, Deadnettle” value ([17]; 125 g ai/ha) was 10. The “Plant response rating, Deadnettle” value ([17]; 250 g ai/ha) was 10, the “Plant response rating, Windgrass” value ([18]; 16 g ai/ha) was 0 and the “Plant response rating, Windgrass” value ([18]; 31 g ai/ha) was 0. The “Plant response rating, Windgrass” value ([18]; 62 g ai/ha) was 0, the “Plant response rating, Windgrass” value ([18]; 125 g ai/ha) was 0 and the “Plant response rating, Windgrass” value ([18]; 250 g ai/ha) was 0. The “Plant response rating, Oilseed Rape” value ([19]; 16 g ai/ha) was 30, the “Plant response rating, Oilseed Rape” value ([19]; 31 g ai/ha) was 50 and the “Plant response rating, Oilseed Rape” value ([19]; 62 g ai/ha) was 60. For the same compound, the “Plant response rating, Oilseed Rape” value ([19]; 125 g ai/ha) was 85, the “Plant response rating, Oilseed Rape” value ([19]; 250 g ai/ha) was 0 and the “Plant response rating, Russian Thistle” value ([20]; 16 g ai/ha) was 0. The “Plant response rating, Russian Thistle” value ([20]; 31 g ai/ha) was 10, the “Plant response rating, Russian Thistle” value ([20]; 62 g ai/ha) was 20 and the “Plant response rating, Russian Thistle” value ([20]; 125 g ai/ha) was 40. For the same compound, the “Plant response rating, Russian Thistle” value ([20]; 250 g ai/ha) was 50.
